This is an account of results in US7789958B2, “Non-toxic corrosion-protection pigments based on manganese” (University of Dayton, priority 2003, dated 2010).

For data set [1] the following is noted: cited from earlier work.
A short description of data set [2]: ASTM B-117 static salt fog test of PVB wash primers, rated by ASTM D-1654. The following applies: PVB wash primer; for B-117 Proc. A: ASTM D-1654 rating Procedure A; for B-117 Proc. B: ASTM D-1654 rating Procedure B. On the procedure:
(§1) The corrosion inhibiting performance of MnIII and MnIV pigments was evaluated by incorporating them into primer paint formulations. […] The wash primer is composed of a resin, an acid, a corrosion inhibiting pigment, powdered talc, and carbon lampblack. The acid content of this wash primer provides a rigorous initial test of the stability and performance of the pigments. Other, more benign, polymer-based binder and resin systems might not separate the compounds based on their performance as effectively or as rapidly. […] PVB was used exclusively throughout testing to avoid preparation and compositional complications during analysis of pigment performance. However, the invention is not limited to the use of PVB. […] A small amount (0.2 g) of powdered talc (magnesium silicate) “filler” was added. Lampblack was not added to these samples. These components were mixed thoroughly by hand and 3.8 g of phosphoric acid diluent added with further mixing. This rough processing allowed direct comparisons of pigment performance to be made without complications due to powder treatments, modifications, and additives. […] This is not the conventional paint application procedure for aluminum alloys. Under normal service conditions, aluminum alloys are first subjected to a hexavalent chromium-containing conversion coating prior to primer application. However, the conversion coating was omitted so that the performance of the pigment alone could be evaluated and not the synergistic effects of hexavalent chromium (in the conversion coating) or even of barrier films (in the phosphate or anodized coatings). […] This accelerated corrosion test exposes samples to a constant salt-water fog and is a de facto test of solubility for corrosion inhibitors. […] This accelerated corrosion test exposes samples to a cycle of fog of dilute salt and ammonium sulfate at room temperature followed by forced-air drying at an elevated temperature. This is a more realistic test of the ability of a compound to inhibit corrosion. […] After the paint dried for 24 hours, each plate was scribed with an X and the plate edges were sealed with PVC tape to eliminate corrosion edge effects. Two visual observations are associated with this rating test. Procedure A involves a rating of the failure at the scribe-the representative […] of corrosion away from the scribe. […] In this way, not only the bulk corrosion-inhibiting action of a pigment through the binder can be rated, but also its “throwing power”.

Data set [3] is described as follows: ASTM G-85.5 cyclic Prohesion test of PVB wash primers, rated by ASTM D-1654. The note with it: PVB wash primer; for G-85 Proc. A: ASTM D-1654 rating Procedure A; for G-85 Proc. B: ASTM D-1654 rating Procedure B. On the procedure: as §1
The mark [4] stands for this setting: 7.44 × 10^−4 M (10% of Cr), 117 hours, 2024-T3 (alloy taken from column order of Table 7).
The mark [5] stands for this setting: 7.44 × 10^−4 M (10% of Cr), 117 hours, 7075-T6 (alloy taken from column order of Table 7).
Setting [6] is: 7.44 × 10^−4 M (10% of Cr), 139 hours, 2024-T3 (alloy taken from column order of Table 7).
[7] abbreviates: 7.44 × 10^−4 M (10% of Cr), 139 hours, 7075-T6 (alloy taken from column order of Table 7).
Where [8] appears, read: 1.49 × 10^−3 M (20% of Cr), 144 hours, 2024-T3 (alloy taken from column order of Table 7).
The mark [9] stands for this setting: 1.49 × 10^−3 M (20% of Cr), 144 hours, 7075-T6 (alloy taken from column order of Table 7).

Values joined by “and” are separate entries in the source; they are usually repeats but may differ in a detail not shown here. Equal values may be shown once.

As for `[O]=[Cr](=[O])([O-])[O-].[O]=[Pb].[Pb+2]` [basic lead chromate], the “solubility in water relative to lead chromate” value in data set [1] was “slightly lower solubility in water”.

Consider `[O]1[Pb][O][Pb]12[O][Pb][O]2` [red lead], for which the PbVI solubility in data set [1] (Glasstone, J. Chem. Soc. 121: 1456-69, 1922) is 10^−17 moles/liter Pb^+4.

For the compound barium 9-molybdomanganate, the “B-117 Proc. A” value in data set [2] (setting [4]) is 4; in data set [2] (setting [5]), 3. The “G-85 Proc. A” value was 7 in data set [3] (setting [4]); 8 and 7 in data set [3] (setting [5]). The “G-85 Proc. B” value in data set [3] (setting [4]) is 6; in data set [3] (setting [5]), 7 and 6.

As for barium 13-vanadatomanganate, in data set [2] (setting [6]), the “B-117 Proc. A” value turned out to be 7; the “B-117 Proc. B” value is 8 and 7. In data set [2] (setting [7]), the “B-117 Proc. A” value came out at 7 and the “B-117 Proc. B” value came out at 6. Moreover, in data set [3] (setting [6]), the “G-85 Proc. A” value is 6 and 7; the “G-85 Proc. B” value was 6. In addition, in data set [3] (setting [7]), the “G-85 Proc. A” value is on record as 6 and the “G-85 Proc. B” value is 5.

Consider barium hexaiodatomanganate, for which the “B-117 Proc. A” value in data set [2] (setting [8]) and in data set [2] (setting [9]) was 5 throughout. Also, the “B-117 Proc. B” value in data set [2] (setting [8]) and in data set [2] (setting [9]) was 3 in each case. For the same compound, the “G-85 Proc. A” value in data set [3] (setting [8]) was 7 and 8; in data set [3] (setting [9]), 8 and 7. For the same compound, the “G-85 Proc. B” value in data set [3] (setting [8]) was 7 and 8; in data set [3] (setting [9]) it was 8 and 7.

On to calcium 9-molybdomanganate, for which, in data set [2] (setting [4]), the “B-117 Proc. A” value turned out to be 6 and the “B-117 Proc. B” value is given as 3. Moreover, in data set [2] (setting [5]), the “B-117 Proc. A” value was 5 and the “B-117 Proc. B” value came to 4. Also, in data set [3] (setting [4]), the “G-85 Proc. A” value is listed as 6 and the “G-85 Proc. B” value was 5. In addition, in data set [3] (setting [5]), the “G-85 Proc. A” value is recorded as 7 and the “G-85 Proc. B” value amounted to 6.

As for calcium 13-vanadatomanganate, the “B-117 Proc. A” value in data set [2] (setting [6]) worked out at 8; in data set [2] (setting [7]), 7. Further, the “B-117 Proc. B” value was determined as 7 in data set [2] (setting [6]) and 6 in data set [2] (setting [7]). The “G-85 Proc. A” value in data set [3] (setting [6]) and in data set [3] (setting [7]) was 7 each time. Also, the “G-85 Proc. B” value in data set [3] (setting [6]) and in data set [3] (setting [7]) was 6 each time.

For magnesium 13-vanadatomanganate, in data set [2] (setting [6]), the “B-117 Proc. A” value was 9 and the “B-117 Proc. B” value was determined as 7. In data set [2] (setting [7]), the “B-117 Proc. A” value is 7 and the “B-117 Proc. B” value was determined as 8. Also, in data set [3] (setting [6]), the “G-85 Proc. A” value was found to be 7 and the “G-85 Proc. B” value worked out at 6. Moreover, in data set [3] (setting [7]), the “G-85 Proc. A” value was 6 and 7; the “G-85 Proc. B” value is 5 and 6.

With strontium 9-molybdomanganate, the “B-117 Proc. A” value was 5 in data set [2] (setting [4]); 4 and 5 in data set [2] (setting [5]). For the same compound, the “G-85 Proc. A” value in data set [3] (setting [4]) and in data set [3] (setting [5]) was 6 throughout. Also, the “G-85 Proc. B” value in data set [3] (setting [4]) and in data set [3] (setting [5]) was 5 throughout.

On to strontium 13-vanadatomanganate, for which, in data set [2] (setting [6]), the “B-117 Proc. A” value came to 7 and the “B-117 Proc. B” value turned out to be 6. Further, in data set [2] (setting [7]), the “B-117 Proc. A” value amounted to 7 and the “B-117 Proc. B” value turned out to be 6. In data set [3] (setting [6]), the “G-85 Proc. A” value came to 6; the “G-85 Proc. B” value was 5 and 6. In data set [3] (setting [7]), the “G-85 Proc. A” value was 6; the “G-85 Proc. B” value was 5 and 6.

In the case of zinc 9-molybdomanganate, the “B-117 Proc. A” value in data set [2] (setting [4]) and in data set [2] (setting [5]) was 5 each time. The “B-117 Proc. B” value in data set [2] (setting [4]) is 3; in data set [2] (setting [5]), 4 and 3. In addition, the “G-85 Proc. A” value in data set [3] (setting [4]) is 7; in data set [3] (setting [5]) it was 7 and 8. The “G-85 Proc. B” value in data set [3] (setting [4]) was 7 and 6; in data set [3] (setting [5]), 7.

Regarding zinc 13-vanadatomanganate, in data set [2] (setting [6]), the “B-117 Proc. A” value is reported as 8 and the “B-117 Proc. B” value was found to be 9. In data set [2] (setting [7]), the “B-117 Proc. A” value was determined as 7 and the “B-117 Proc. B” value came out at 8. Also, in data set [3] (setting [6]), the “G-85 Proc. A” value turned out to be 7; the “G-85 Proc. B” value is 6 and 5. Also, in data set [3] (setting [7]), the “G-85 Proc. A” value is 7 and 6; the “G-85 Proc. B” value was 6 and 5.
